In patent US6664247B2, “Pyrazole compounds useful as protein kinase inhibitors” (Vertex Pharmaceuticals Incorporated, priority 2000, dated 2003) one finds Ki data, which are given here for one compound.

In this test the target is T1, Aurora-2 (Homo sapiens, UniProt O14965).
T1 sequence (O14965 1-403): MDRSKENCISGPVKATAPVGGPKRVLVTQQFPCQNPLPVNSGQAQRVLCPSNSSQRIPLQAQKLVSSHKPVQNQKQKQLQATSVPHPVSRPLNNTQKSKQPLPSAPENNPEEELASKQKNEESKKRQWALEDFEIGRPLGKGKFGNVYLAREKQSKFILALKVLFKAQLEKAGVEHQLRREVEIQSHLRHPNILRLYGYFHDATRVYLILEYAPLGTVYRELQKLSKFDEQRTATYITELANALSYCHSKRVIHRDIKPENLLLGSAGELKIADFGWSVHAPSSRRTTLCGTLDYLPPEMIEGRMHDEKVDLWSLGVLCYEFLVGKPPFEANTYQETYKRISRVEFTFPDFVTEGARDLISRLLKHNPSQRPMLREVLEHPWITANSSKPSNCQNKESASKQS
In words: Ki determination for the inhibition of Aurora-2 (coupled enzyme assay). Conditions: 70 nM Aurora-2, 800 μM peptide LRRASLG, 30° C. Type of test: biochemical. The procedure: To an assay stock buffer solution containing 0.1 M HEPES 7.5, 10 mM MgCl2, 1 mM DTT, 25 mM NaCl, 2.5 mM phosphoenolpyruvate, […], 30 mg/ml pyruvate kinase, 10 mg/ml lactate dehydrogenase, 40 mM ATP, and 800 μM peptide (LRRASLG, American Peptide, Sunnyvale, Calif.) was added a DMSO solution of a compound of the present invention to a final concentration of 30 μM. The resulting mixture was incubated at 30° C. for 10 min. The reaction was initiated by the addition of 10 μL of Aurora-2 stock solution to give a final concentration of 70 nM in the assay. […] The Ki values were determined from the rate data as a function of inhibitor concentration.

The Ki is the dissociation constant of the complex between target and ligand, obtained from inhibition or displacement. `Cc1cc(Nc2cc(-c3ccccc3)nc(Nc3ccccc3)n2)n[nH]1` [IIIc-1, (5-Methyl-2H-pyrazol-3-yl)-(6-phenyl-2-phenylamino-pyrimidin-4-yl)-amine] displayed a Ki of 100 to 1000 nM.
